# Active and inactive are the calls of the source.
# What was measured:
# [1] = A Cell Based Secondary Assay To Explore Cytotoxicity of Compounds that Sensitize Mycobacterium Tuberculosis to Beta-Lactam Antibiotics.; assay type: functional
# [2] = target: T1, E3 ubiquitin-protein ligase XIAP (Homo sapiens, UniProt P98170); test: Counter Screen using XIAP-Bir3 for Chemical Antagonists of Bir1/2 domains of IAP-family anti-apoptotic proteins. [Related pubchem assays (depositor defined):AID1018, AID1449, AID1514, AID1638, AID1749, AID1750, AID488957, AID488963]
# [3] = target: T1, E3 ubiquitin-protein ligase XIAP; test: XIAP antagonists, biochemical, IAP family, fluorescence polarization (AID 1018); assay type: functional
# HEK293 = test: inhibitors of LMP1-driven NF-kB reporter, dose response, cell-based, HEK293, luciferase, cherry-pick (AID 588343); assay type: functional; conditions: Homo sapiens
# [4] = THP-1 cell cytotoxicity, dose response, cytotoxicity control for Vif-APOBEC3G degradation inhibitor project, THP-1 cells (AID 1117359); assay type: functional; conditions: Human immunodeficiency virus 1, THP-1
# [5] = A cytotoxicity screen of small molecule inhibitors of the PhoP region in Salmonella typhi identified in the primary screen. [Related pubchem assays: 1850, 1864, 1985 ]; assay type: functional
# Coagulation factor XII = target: T2, Coagulation factor XII (Homo sapiens, UniProt P00748); assay type: functional;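 further: activated factor XIIa alpha cleaving a fluorogenic AMC peptide substrate; inhibitor potency from loss of enzyme activity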
# T2 sequence (P00748 whole entry): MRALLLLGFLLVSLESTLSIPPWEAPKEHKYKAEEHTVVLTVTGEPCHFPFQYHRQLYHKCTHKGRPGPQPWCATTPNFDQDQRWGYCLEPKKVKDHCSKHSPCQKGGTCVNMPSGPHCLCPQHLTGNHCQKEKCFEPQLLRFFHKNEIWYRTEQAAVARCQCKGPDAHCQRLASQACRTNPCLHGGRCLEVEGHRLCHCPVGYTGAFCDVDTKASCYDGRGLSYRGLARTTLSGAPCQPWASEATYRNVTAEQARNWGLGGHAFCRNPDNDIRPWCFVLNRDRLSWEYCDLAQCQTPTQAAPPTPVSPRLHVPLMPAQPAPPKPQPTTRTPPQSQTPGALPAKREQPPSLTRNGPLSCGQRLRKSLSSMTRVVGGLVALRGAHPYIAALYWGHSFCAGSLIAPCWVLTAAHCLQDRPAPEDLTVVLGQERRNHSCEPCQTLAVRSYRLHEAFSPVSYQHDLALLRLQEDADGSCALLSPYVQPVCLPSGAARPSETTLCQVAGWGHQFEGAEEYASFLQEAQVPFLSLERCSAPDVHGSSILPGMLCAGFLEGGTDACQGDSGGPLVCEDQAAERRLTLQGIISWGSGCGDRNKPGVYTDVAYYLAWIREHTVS
# [6] = growth suppression of beta-catenin-knockout colon cells, dose response, cell-based, HCT116, human colon tumor (AID 1045); assay type: functional;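 further: HCT116 colon tumor cells with beta catenin knocked out; cells exposed to compound for 60 hours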
# [7] = target: T3, Oxysterols receptor LXR-beta (Homo sapiens, UniProt P55055); test: LXR agonists, Gal4 luciferase reporter, dose response, counter-screen for ssDAF-12 agonist project, cell-based, luminescence, HEK293, S. stercoralis campaign (AID 720737); assay type: functional; conditions: read-out: IC50 (the source's name)
# T3 sequence (P55055 whole entry): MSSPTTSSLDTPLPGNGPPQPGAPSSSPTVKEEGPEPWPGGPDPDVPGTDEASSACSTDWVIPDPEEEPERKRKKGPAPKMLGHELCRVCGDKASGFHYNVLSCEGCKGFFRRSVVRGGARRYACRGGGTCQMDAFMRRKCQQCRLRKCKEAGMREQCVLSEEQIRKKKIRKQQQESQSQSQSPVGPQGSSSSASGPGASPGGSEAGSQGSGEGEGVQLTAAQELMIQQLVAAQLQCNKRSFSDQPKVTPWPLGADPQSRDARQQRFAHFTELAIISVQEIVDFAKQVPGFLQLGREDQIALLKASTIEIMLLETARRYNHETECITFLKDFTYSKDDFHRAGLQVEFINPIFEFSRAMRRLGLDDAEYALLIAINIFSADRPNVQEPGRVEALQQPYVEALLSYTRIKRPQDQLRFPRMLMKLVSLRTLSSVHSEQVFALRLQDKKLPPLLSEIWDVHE
# [8] = Luminescence-based cell-based high throughput dose response assay to identify activators of the DAF-12 from the parasite S. stercoralis (ssDAF-12).; assay type: functional
# Prothrombin = Prothrombin (Homo sapiens, UniProt P00734); test: Thrombin 1536 HTS Dose Response Confirmation. [Related pubchem assays: 1046 (Thrombin 1536 HTS; hits were confirmed in this assay)]; assay type: functional
# [9] = target: Induced myeloid leukemia cell differentiation protein Mcl-1 (Homo sapiens, UniProt Q07820); assay type: functional
# [10] = target: T4, Mannose-6-phosphate isomerase (Homo sapiens, UniProt P34949); test: human PMI inhibitors, high substrate, primary screen, biochemical, fluorescence intensity, high mannose 6-phosphate (AID 1220)
# T4 sequence (P34949 whole entry): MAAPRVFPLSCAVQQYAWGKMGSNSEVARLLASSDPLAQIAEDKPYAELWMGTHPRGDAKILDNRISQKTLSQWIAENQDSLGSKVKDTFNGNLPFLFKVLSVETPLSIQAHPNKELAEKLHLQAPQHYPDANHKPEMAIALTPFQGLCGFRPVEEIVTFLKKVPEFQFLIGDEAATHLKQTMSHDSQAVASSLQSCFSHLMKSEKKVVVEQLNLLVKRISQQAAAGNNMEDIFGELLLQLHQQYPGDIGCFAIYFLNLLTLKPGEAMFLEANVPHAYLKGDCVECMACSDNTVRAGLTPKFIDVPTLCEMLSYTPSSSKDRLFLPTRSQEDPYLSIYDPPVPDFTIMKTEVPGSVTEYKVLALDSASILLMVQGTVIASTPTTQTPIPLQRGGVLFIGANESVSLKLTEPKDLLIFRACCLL
# INS1 = test: beta cell apoptosis inhibitors, cytokine rescue, dose response, luminescence, retest (AID 449756); assay type: functional, cell-based; conditions: Rattus norvegicus;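 further: cell death triggered by IL-1 beta plus TNF-alpha plus IFN-gamma mixture; protective hits raise ATP signal compared with cytokine alone wells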
# [11] = Shn3 3'UTR reporter inhibitors, dose response, cell-based, Clone20 osteoblasts, firefly luciferase, cherry-picked (AID 624132); assay type: functional;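 further: firefly luciferase luminescence from reporter carrying the Shn3 3'UTR in osteoblasts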
# [12] = cytotoxicity in HEK-293T cells, dose response, cytotoxicity control for TCR NF-kB inhibitor project, luminescence, T-cell screen hits (AID 489026); assay type: functional, cell-based;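 further: cells exposed to compound about 14 hours before the viability readout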
# [13] = HepG2 cell cytotoxicity, dose response, cytotoxicity control for Shn3 inhibitor project, CellTiter-Glo, cherry-picked (AID 624134); assay type: functional, cell-based
# [14] = target: T5, Heat shock factor protein 1 (Mus musculus, UniProt P38532); test: inhibition of MG132-induced HSE-luciferase signal, confirmation, cell-based, NIH3T3, luminescence, dose retest (AID 2382); assay type: functional;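 further: NIH3T3 fibroblasts with HSF1-driven luciferase reporter stressed by proteasome inhibitor MG132; luminescence from HSF1-driven luciferase expression after 8 hours of MG132 stress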
# T5 sequence (P38532 whole entry): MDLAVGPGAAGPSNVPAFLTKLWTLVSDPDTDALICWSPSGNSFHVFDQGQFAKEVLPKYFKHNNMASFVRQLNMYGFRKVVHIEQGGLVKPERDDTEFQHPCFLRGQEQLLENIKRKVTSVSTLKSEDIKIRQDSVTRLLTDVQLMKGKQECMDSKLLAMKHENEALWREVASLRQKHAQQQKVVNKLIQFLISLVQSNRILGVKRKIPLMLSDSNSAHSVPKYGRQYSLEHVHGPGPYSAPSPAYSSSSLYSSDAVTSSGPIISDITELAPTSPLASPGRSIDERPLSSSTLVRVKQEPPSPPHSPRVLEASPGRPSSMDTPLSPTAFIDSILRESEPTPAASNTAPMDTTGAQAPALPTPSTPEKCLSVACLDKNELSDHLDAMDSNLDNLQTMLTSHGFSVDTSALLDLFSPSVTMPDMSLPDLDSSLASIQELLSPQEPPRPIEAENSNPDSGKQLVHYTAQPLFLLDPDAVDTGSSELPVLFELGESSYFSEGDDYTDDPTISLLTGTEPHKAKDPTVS
# [15] = control 3'UTR Renilla luciferase suppression, dose response, counter-screen for Shn3 inhibitor project, cell-based, Clone20-Shn3RL, cherry-picked (AID 624133); assay type: functional
# Genome polyprotein = Genome polyprotein (dengue virus type 2, UniProt P29990); test: Dengue-2 NS5 methyltransferase inhibitors, primary screen, biochemical, confirmation dose response (AID 588689); assay type: functional
# Sequence of Genome polyprotein (P29990 2492-3391 limits assumed): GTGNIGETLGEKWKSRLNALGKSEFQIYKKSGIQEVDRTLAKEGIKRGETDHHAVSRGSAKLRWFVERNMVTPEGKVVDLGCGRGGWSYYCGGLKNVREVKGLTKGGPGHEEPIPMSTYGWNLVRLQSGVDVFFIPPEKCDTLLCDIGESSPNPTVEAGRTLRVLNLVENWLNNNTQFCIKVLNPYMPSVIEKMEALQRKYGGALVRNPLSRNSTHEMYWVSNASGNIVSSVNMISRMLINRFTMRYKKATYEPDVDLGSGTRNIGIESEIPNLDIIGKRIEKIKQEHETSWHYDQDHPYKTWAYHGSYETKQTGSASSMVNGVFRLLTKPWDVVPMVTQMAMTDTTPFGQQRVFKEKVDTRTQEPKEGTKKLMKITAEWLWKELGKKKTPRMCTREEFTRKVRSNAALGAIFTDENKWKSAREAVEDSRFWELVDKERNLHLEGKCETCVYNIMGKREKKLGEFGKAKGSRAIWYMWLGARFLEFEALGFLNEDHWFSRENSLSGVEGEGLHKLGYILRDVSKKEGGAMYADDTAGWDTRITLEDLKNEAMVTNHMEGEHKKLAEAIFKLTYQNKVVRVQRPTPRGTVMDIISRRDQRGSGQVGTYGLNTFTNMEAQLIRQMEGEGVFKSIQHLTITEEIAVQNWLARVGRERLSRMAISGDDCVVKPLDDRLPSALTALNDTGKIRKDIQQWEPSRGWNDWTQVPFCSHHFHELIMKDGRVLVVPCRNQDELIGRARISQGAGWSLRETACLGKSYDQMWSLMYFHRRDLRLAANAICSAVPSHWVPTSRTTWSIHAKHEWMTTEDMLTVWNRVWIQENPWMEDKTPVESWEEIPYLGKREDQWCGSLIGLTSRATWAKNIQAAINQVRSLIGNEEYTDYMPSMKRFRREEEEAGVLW
# T1 sequence (P98170 whole entry): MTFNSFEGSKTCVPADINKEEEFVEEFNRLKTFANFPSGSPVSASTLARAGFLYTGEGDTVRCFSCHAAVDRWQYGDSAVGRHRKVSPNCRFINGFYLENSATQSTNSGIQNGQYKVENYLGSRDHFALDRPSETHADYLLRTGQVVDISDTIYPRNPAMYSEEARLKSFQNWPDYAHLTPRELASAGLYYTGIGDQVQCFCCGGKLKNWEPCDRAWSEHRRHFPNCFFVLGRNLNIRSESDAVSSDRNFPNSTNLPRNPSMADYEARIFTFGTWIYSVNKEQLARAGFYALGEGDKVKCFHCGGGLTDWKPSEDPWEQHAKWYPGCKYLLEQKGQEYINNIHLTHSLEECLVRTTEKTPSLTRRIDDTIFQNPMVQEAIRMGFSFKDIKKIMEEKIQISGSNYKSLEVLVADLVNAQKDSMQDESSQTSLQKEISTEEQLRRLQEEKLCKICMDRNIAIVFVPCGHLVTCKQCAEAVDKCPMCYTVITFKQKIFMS
# Sequence of Induced myeloid leukemia cell differentiation protein Mcl-1 (Q07820 whole entry): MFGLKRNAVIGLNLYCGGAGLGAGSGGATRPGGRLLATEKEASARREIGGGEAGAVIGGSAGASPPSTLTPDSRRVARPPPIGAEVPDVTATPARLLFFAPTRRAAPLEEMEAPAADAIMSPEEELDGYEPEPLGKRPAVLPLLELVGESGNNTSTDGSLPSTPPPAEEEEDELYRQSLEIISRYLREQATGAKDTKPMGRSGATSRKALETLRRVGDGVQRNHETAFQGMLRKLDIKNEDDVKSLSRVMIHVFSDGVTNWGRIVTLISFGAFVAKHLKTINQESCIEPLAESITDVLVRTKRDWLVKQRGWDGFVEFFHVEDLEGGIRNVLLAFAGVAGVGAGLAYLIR
smiles,measurement,setting,value
COc1ccc(-c2csc(NC(C)c3nc4cc(Cl)c(Cl)cc4n3CCCO)n2)cc1 (configuration not stated),CC50,[1],15.4 µM (active)
CC(C)(C)OC(=O)N1CCC(NC(=O)c2[nH]cnc2C(=O)Nc2ccccc2)CC1,CC50,[1],> 40 µM (active)
CCN1C(=O)c2ccccc2[S+]([O-])c2ccc(C(=O)N3CCCCCC3)cc21 (configuration not stated),IC50,[2],> 100 µM (inactive)
same,IC50,[3],> 100 µM (not active)
COc1ccc(-n2c(SCC(=O)Nc3cc(C)on3)nc3c(c2=O)SCC3)cc1,IC50,[2],> 100 µM (inactive)
same,AC50,HEK293,98.6 µM (active)
same,IC50,[3],> 100 µM (not active)
CCN(Cc1ccccc1)Cc1nnnn1Cc1ccccc1,CC50,[4],> 40 µM (active)
CN(Cc1ccccc1O)CC1CCCN(CCc2ccc(Cl)cc2)C1 (configuration not stated),EC50,[5],> 50 µM (active)
CCOC(=O)c1cc2sccc2n1CC(=O)N1c2ccccc2CC1C (configuration not stated),IC50,Coagulation factor XII,> 50 µM (inactive)
same,EC50,[6],445 µM (active)
Cc1c(NC(=O)CSc2nc3ccccc3s2)c(=O)n(-c2ccccc2)n1C,IC50,Coagulation factor XII,> 50 µM (inactive)
c1ccc(-c2ncc3c(ccc4ccccc43)n2)cc1,EC50,[7],> 67.6 µM (inactive)
same,IC50,[8],> 67.6 µM (inactive)
O=C(NCc1cccs1)C1CC(c2ccccc2O)=NO1 (configuration not stated),IC50,[2],> 100 µM (inactive)
same,IC50,[3],> 100 µM (not active)
CN(C)C(=O)CSc1nnc([C@@H](N)Cc2ccccc2)o1,IC50,Coagulation factor XII,> 50 µM (inactive)
same,IC50,Prothrombin,> 50 µM (not active)
COC(=O)Cn1c(=O)c(C)nc2ccccc21,EC50,[5],> 50 µM (active)
CCC1C/C(=C/c2ccco2)C(=O)/C(=C/c2ccco2)C1 (configuration not stated),CC50,[4],> 40 µM (active)
COCc1n[nH]c2c1C(c1c(F)cccc1Cl)C(C#N)=C(N)O2 (configuration not stated),EC50,[5],> 50 µM (active)
Cc1c(C(=O)N/N=C/c2ccc(-c3ccccc3[N+](=O)[O-])o2)sc(N)c1C#N,IC50,[9],3.78 µM (active)
same,IC50,[10],> 50 µM (not active)
C=C(C)C(=O)O[C@H]1C/C(C)=C\C(=O)/C=C(\C)[C@H](O)[C@@H]2OC(=O)C(=C)[C@@H]21,CC50,[1],3.71 µM (active)
same,AC50,INS1,8.02 µM (active)
same,AC50,[11],3.02 µM (active)
same,IC50,[12],> 80 µM (inactive)
same,AC50,[13],6.81 µM (active)
same,EC50,[14],8.1 µM (active)
same,AC50,[15],11.1 µM (active)
Oc1ccc2ccccc2c1/C=N\C12CN3CCN(CN(C3)C1)C2,IC50,Genome polyprotein,53.9 µM (active)
same,IC50,[10],27.6 µM (active)
